How the values were obtained:
[1] = tested on: NF-κB (phospho-p65^Ser536); assay: Western blot of phospho-p65^Ser536 in challenged neuronal cells; format: cell-based, mouse; settings: glutamate and conditioned media challenged neuronal cells; WA
Description: […] is known to modulate p53-p38MAPK dependent apoptosis in neurons, when treated with DNA damage inducing chemicals like camptothecin^34, glutamate excitotoxicity^35 or general bystander mediated killing of neurons by microglia^14. To assess the potential contribution of NF-κB to the death of TDP-43 overexpressing neurons exposed to toxic injury, we prepared cultures of primary cortical neurons and microglia from transgenic mice overexpressing TDP-43^wt or TDP-43 mutants. […] The LDH cytotoxicity was determined 24 hrs later (FIG. 14A). […] We then incubated cortical neurons with the conditioned media from primary microglial culture, which were challenged with LPS at a concentration of 50 ng/ml of media. […] As WA might exert multiple pharmacological actions, we tested a more specific molecular approach for inhibiting NF-κB. Since, activation of NF-κB requires its dissociation from the inhibitory molecule, IκB, we expressed a stable mutant super-repressive form of IκB-α (Ser 32/Ser36-to-alanine mutant; IκB^SR) and evaluated its effects on neuronal death. Cultured cortical neurons from TDP-43 transgenic and non-transgenic mice were transfected with a plasmid construct, expressing IκB^SR, and exposed to either 10 μM glutamate for 30 min or incubated in conditioned media from LPS-stimulated microglia of same genotype. […]

[2] = tested on: peripherin; assay: Peripherin immunofluorescence and immunoblot of spinal cord; format: in vivo, mouse; settings: TDP-43^Wt mice, treated vs untreated
Experimental: To study the in vivo effect of NF-κB inhibition on disease progression, we injected TDP-43^wt; GFAP-luc double transgenic mice with 3 mg/kg body weight of WA twice a week for 10-weeks starting at 30-weeks. […] We used TDP-43^wt; GFAP-luc double transgenic mice because the reporter luciferase (luc) allowed the longitudinal and non-invasive biophotonic imaging with CCD camera of the GFAP promoter activity which is a target of activated NF-κB. To analyse the spatial and temporal dynamics of astrocytes activation/GFAP induction in TDP-43 mouse model, we performed series of live imaging experiments. […] The downregulation of GFAP promoter activity was further confirmed in these mice using GFAP immunofluorescence of spinal cord sections of TDP-43^Wt mice (both drug-treated and untreated) (FIG. 8F). […] Down-regulation of GFAP along with reduction in active p65 levels in withaferin treated mice prompted us to analyse behavioural changes in these mice. […] The withaferin treated mice also had 40% reduction in the number of partially denervated neuromuscular junction (NMJ) (FIGS. 8E&G).
Snap frozen spinal cords of mice were harvested with lysis buffer containing 25 mM HEPES-NaOH (pH 7.9), 150 mM NaCl, 1.5 mM MgCl2, 0.2 mM EDTA, 0.5% Triton-X-100, 1 mM dithiothreitol and protease inhibitor cocktail. Protein samples were estimated using Bradford method. The lysate was incubated with 50 μl of Dynabeads (Protein-G beads, Invitrogen), anti-TDP-43 polyclonal (ProteinTech, Chicago, Ill., USA) or anti-peripherin polyclonal antibody (AB1530, Chemicon, Billerica, Mass., USA). After subsequent washing, the beads were incubated overnight at 4° C. with […] of tissue lysate. Antibody-bound complexes were eluted by boiling in Laemmli sample buffer. Supernatants were resolved by 10% SDS-PAGE and transferred on nitrocellulose membrane (Biorad, Hercules, Calif., USA). The membrane was incubated with anti-ubiquitin antibody (1:1000, Abcam, Cambridge, Mass., USA). For other western blot assays, blots were incubated with primary antibodies against human monoclonal TARDBP antibody (1:1000, Abnova, clone E2-D3), peripherin polyclonal (1:1000, Chemcion—AB1530), peripherin monoclonal (1:500, Chemicon, AB1527), Clone NR4 for NF-L (1:1000, Sigma), Clone NN18 for NF-M (1:1000, Millipore) and Clone N52 for NF-H (1:1000, Millipore). Immunoreactive proteins were then visualized by chemiluminescence (Perkin and Elmer, Santa Clara, Calif., USA) as described previously (Dequen et al., 2008). Actin (1:10000, Chemicon) is used as a loading control.
4% Paraformaldehyde (PFA) fixed spinal cord and brain sections of mice were sectioned and fixed on slides. For immunohistochemistry, tissues were treated with hydrogen-peroxide solution before permeabilisation. […]

SMILES: CC1=C(CO)C(=O)O[C@@H]([C@@H](C)[C@H]2CC[C@H]3[C@@H]4C[C@H]5O[C@]56[C@@H](O)C=CC(=O)[C@]6(C)[C@H]4CC[C@]23C)C1 [Withaferin A]
- levels of phospho-p65^Ser536 (inhibition of NF-κB) [1]: reduced levels
- peripherin in spinal cord (immunofluorescence, polyclonal antibody) ([2]; listed as Withaferin): reduced levels of peripherin
- peripherin levels in spinal cord (western blot / immunoblot, monoclonal antibody) ([2]; listed as Withaferin): reduced levels of peripherin
- peripherin in spinal cord (immunofluorescence, polyclonal antibody) ([2]; listed as withaferin): reduction of peripherin aggregates
- peripherin levels in spinal cord (western blot / immunoblot, monoclonal antibody) ([2]; listed as withaferin): reduced

Source: US10060933B2, “Methods for diagnosis and treatment of amyotrophic lateral sclerosis based on an increased level of interaction between TDP-43 polypeptide and NF-KB P65 polypeptide” (UNIVERSITE LAVAL, priority 2011, dated 2018)
